Source: patent publication US7244734B2, “Hexa- and octahydro-pyrido[1,2-a]pyrazine derivatives with NK1 antagonistic activity” (Solvay Pharmaceuticals B.V., priority 2003, dated 2007)

Columns and labels:
[1] = test system: NK1 agonist-induced gerbil foot-tapping; assay: NK1 agonist (GR 73632)-induced gerbil foot-tapping; settings: Meriones unguiculatus, po, 60 min before anaesthesia; GR 73632 i.c.v.; male gerbils; read-out: In vivo antagonism Gerbil foot tapping p.o. ED50
Description: Concentration-response relationships were constructed by plotting cAMP conversion against compound concentration and IC50 values were calculated by four-parameter logistic regression. Antagonist potencies (pA2) values were calculated using: […] in which the IC50 of the test compound was obtained from concentration-effect relationships, [SP] is the concentration of substance P (in mol/l; typically 10 nM), and the EC50 is the potency of substance P at human cloned NK1 receptors. NK1 Agonist—Induced Gerbil Foot-Tapping
Therefore, we have used this model to assess the in vivo activity of the compounds of the invention.
60 min prior to anaesthesia with N2O (0.8 L/min), halothane (3%) and O2 (0.8 L/min) male gerbils (40-60 g; Charles River) received an injection of vehicle or test compound (p.o.). Upon successful narcosis the anaesthetic was adjusted to N2O (0.6 L/min), halothane (1.5%) and O2 (0.6 L/min) and a midline scalp incision made. GR 73632 was infused into the cerebroventricular space (AP−0.5 mm, L−1.2 mm, and vertical−4.5 mm from bregma). Following recovery from anaesthesia (about 3-4 min) the foot tapping response was recorded for 5 minutes. The predefined criterion for antagonism of this response was defined as inhibition of foot tapping for ≧5 min.

human NK1 receptor = target: T1, human NK1 receptor (Homo sapiens, UniProt P25103); assay: Receptor binding for human NK1 receptors ([3H]-substance P displacement, CHO cell membranes); settings: human NK1 receptor in CHO membranes, read-out: affinity NK-1 binding pKi (converted)
T1 construct: expressed in transfected cells; membranes
Description: Receptor Binding for Human NK1 Receptors
Affinity of the compounds for human NK1 receptors was assessed using radio-receptor binding assays. Membrane preparations were prepared from Chinese Hamster Ovarium fibroblast (CHO) cells in which the human NK1 receptor was stably expressed. Membranes were incubated with [^3H]-substance P in the absence or the presence of specified concentrations of the compounds, diluted in a suitable buffer in presence of peptidase inhibitor for 10 min at 25° C. Separation of bound radioactivity from free was done by filtration over Whatman GF/B glass fiber filters with two 5 sec washings. Bound radioactivity was counted by liquid scintillation counting using a Betaplate counter. Measured radioactivity was plotted against the concentration of the displacing test compound and displacement curves were calculated by four-parameter logistic regression, resulting in IC50 values, i.e. that concentration of displacing compound by which 50% of the radioligand is displaced. Affinity pKI values were calculated by correcting the IC50 values for radioligand concentration and its affinity for the human NK1 receptor according to the Cheng-Prusoff equation: pKi=−log [IC50/(1+S/Kd)] in which the IC50 is as described above, S is the concentration [^3H]-substance P used in the assay expressed in mol/l, and Kd is the equilibrium dissociation constant of [^3H]-substance P for human NK1 receptors (in mol/l). cAMP Measurements

T1 sequence (P25103 whole entry): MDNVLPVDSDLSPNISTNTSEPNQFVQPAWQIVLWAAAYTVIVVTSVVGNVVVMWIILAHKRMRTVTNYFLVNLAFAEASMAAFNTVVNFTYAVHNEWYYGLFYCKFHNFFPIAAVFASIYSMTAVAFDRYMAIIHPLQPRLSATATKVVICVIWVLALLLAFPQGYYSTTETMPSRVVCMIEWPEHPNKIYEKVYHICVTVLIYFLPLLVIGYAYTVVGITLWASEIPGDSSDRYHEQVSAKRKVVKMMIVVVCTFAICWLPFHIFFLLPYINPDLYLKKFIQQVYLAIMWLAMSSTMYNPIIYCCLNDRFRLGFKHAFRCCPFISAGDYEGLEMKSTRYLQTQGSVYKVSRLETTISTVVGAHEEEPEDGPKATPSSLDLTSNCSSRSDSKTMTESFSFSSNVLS

Row | Compound | Ki (human NK1 receptor) | ED50 [1]
1 | O=C(c1cc(C(F)(F)F)cc(C(F)(F)F)c1)N1C[C@H]2CCC(c3nccs3)=CN2C[C@H]1Cc1c[nH]c2ccccc12 [Compound 7, (3R,9aR)-(3,5-bis(trifluoromethyl)phenyl)-[3-(1H-indol-3-ylmethyl)-7-thiazol-2-yl-1,3,4,8,9,9a-hexahydro-pyrido[1,2-a]pyrazin-2-yl]-methanone] | 0.631 nM | 3.4 mg/kg
2 | O=C(c1cc(C(F)(F)F)cc(C(F)(F)F)c1)N1C[C@H]2CCC(c3ccncc3)=CN2C[C@H]1Cc1c[nH]c2ccccc12 [Compound 1, (3R,9aR)-(3,5-bis(trifluoromethyl)phenyl)-[3-(1H-indol-3-ylmethyl)-7-pyridin-4-yl-1,3,4,8,9,9a-hexahydro-pyrido[1,2-a]pyrazin-2-yl]-methanone] | 15.8 nM | 1.7 mg/kg
3 | O=C(c1cc(C(F)(F)F)cc(C(F)(F)F)c1)N1C[C@H]2CCC(c3ncccn3)=CN2C[C@H]1Cc1c[nH]c2ccccc12 [Compound 6, (3R,9aR)-(3,5-bis(trifluoromethyl)phenyl)-[3-(1H-indol-3-ylmethyl)-7-pyrimidin-2-yl-1,3,4,8,9,9a-hexahydro-pyrido[1,2-a]pyrazin-2-yl]-methanone] | 1.58 nM | 
4 | O=C(c1cc(C(F)(F)F)cc(C(F)(F)F)c1)N1C[C@H]2CCC(c3cccnc3)=CN2C[C@H]1Cc1c[nH]c2ccccc12 [Compound 2, (3R,9aR)-(3,5-bis(trifluoromethyl)phenyl)-[3-(1H-indol-3-ylmethyl)-7-pyridin-3-yl-1,3,4,8,9,9a-hexahydro-pyrido[1,2-a]pyrazin-2-yl]-methanone] | 20 nM | 
5 | O=C(c1cc(C(F)(F)F)cc(C(F)(F)F)c1)N1C[C@H]2CCC(c3cncnc3)=CN2C[C@H]1Cc1c[nH]c2ccccc12 [Compound 4, (3R,9aR)-(3,5-bis(trifluoromethyl)phenyl)-[3-(1H-indol-3-ylmethyl)-7-pyrimidin-5-yl-1,3,4,8,9,9a-hexahydro-pyrido[1,2-a]pyrazin-2-yl]-methanone] | 7.94 nM | 

The next lines start with results.

Row | Ki (human NK1 receptor) | Compound | ED50 [1]
6 | 3.16 nM | O=C(c1cc(C(F)(F)F)cc(C(F)(F)F)c1)N1C[C@H]2CCC(c3ccccn3)=CN2C[C@H]1Cc1c[nH]c2ccccc12 [Compound 3, (3R,9aR)-(3,5-bis(trifluoromethyl)phenyl)-[3-(1H-indol-3-ylmethyl)-7-pyridin-2-yl-1,3,4,8,9,9a-hexahydro-pyrido[1,2-a]pyrazin-2-yl]-methanone] | 2.2 mg/kg
7 | 2.51 nM | O=C(c1cc(C(F)(F)F)cc(C(F)(F)F)c1)N1C[C@H]2CCC(c3cnccn3)=CN2C[C@H]1Cc1c[nH]c2ccccc12 [Compound 5, (3R,9aR)-(3,5-bis(trifluoromethyl)phenyl)-[3-(1H-indol-3-ylmethyl)-7-pyrazin-2-yl-1,3,4,8,9,9a-hexahydro-pyrido[1,2-a]pyrazin-2-yl]-methanone] | 
